Test results from a melting point compilation (Tetko et al.; mined from patent text by program, amines drawn as free bases though some values may be those of a salt).

Point of comparison: `CC1=C(C(=O)OC(C)C)C(c2cccc([N+](=O)[O-])c2)N(C(=O)OC(C)C)C(=S)N1` (stereo not drawn), melting point 138 °C. Against it:
- CCOc1cc2c(c(F)c1F)OC(C1CCC(CC)CC1)CC2 (stereo not drawn) — lower, 90 °C
- CC(C)C(C(=O)O[C@H]1C[C@H](O)C=C2C=C[C@H](C)[C@H](CC[C@@H]3C[C@@H](O)CC(=O)O3)[C@H]21)C(C)C — higher, 210 to 211 °C
- N#Cc1cc(Cl)c(-n2ncc(-c3nc(C#N)c(C#N)[nH]3)n2)c(Cl)c1 — higher, 183 to 185 °C
- COc1cc2nc(N)nc(-c3ccc(O)c(I)c3)c2cc1OC — higher, 248 to 250 °C
- COc1ccc(C(=O)c2c(Cl)cccc2Cl)c(C)c1 — lower, 89 °C
- COc1cc(OC)nc(NC(=O)NS(=O)(=O)Nn2cccc2C(=O)C(F)(F)F)n1 — higher, 145 to 147 °C
- CN(C)c1cccc(-c2nc3c(N[C@H]4[C@@H](C(N)=O)[C@@H]5C=C[C@H]4C5)c(Br)cnc3[nH]2)c1 — higher, 220 to 221 °C
- CC(c1ccc(C=Cc2ccccc2)o1)N(O)C(N)=O (stereo not drawn) — higher, 140 °C
- O=C1CC(CO)N1c1ccccc1 (stereo not drawn) — lower, 100 to 102 °C
- C#Cc1cc2cccnc2c(-c2cccc([N+](=O)[O-])c2)n1 — higher, 215 °C
- CCOc1cc(-c2cc(C(F)(F)F)n3cnc(-c4ccnc(C)c4)c3n2)ccc1C(F)(F)F — higher, 177 °C
- O=C1C[C@H](C(=O)Nc2ccc(N3CCOCC3=O)cc2)N(C(=O)Nc2ccc(Cl)cc2)C1 — higher, 154 °C
- CCc1ccc(C2CCCN2S(=O)(=O)c2ccc(F)cc2)cc1 (racemic) — lower, 93 °C
- CC(=O)Oc1ccc(C=Cc2ccc3ccccc3n2)cc1 — lower, 127 to 128 °C
- O=C(CC1COC1)N[C@H]1CC[C@H](CCN2CCN(c3cccc4c3OCO4)CC2)CC1 — higher, 190 °C
- CN(C)CCCC1(C(=O)O)CCCCC1(O)c1ccccc1 (stereo not drawn) — higher, 144 to 145 °C
- COc1cc(C(C)C)c2c(c1)S(=O)(=O)N(COc1cc(C)nn1-c1ccc([N+](=O)[O-])cc1)C2=O — higher, 196 to 198 °C
- CO/N=C(\C(=O)O)c1ccccc1COc1cc(C)ccc1C — lower, 112 to 114 °C
- Cn1ncc2c3[nH]n(-c4ccc(S(N)(=O)=O)cc4)c(=O)c3c(-c3cccc(C(F)(F)F)c3)nc21 — higher, 272 to 274 °C
- COc1ccc(CNc2nnc(Cl)c3ccc([N+](=O)[O-])cc23)cc1Cl — higher, 217 to 218 °C
- CC1=C(CC(=O)O)c2cc(F)ccc2C1 — higher, 164 to 166 °C
- CCCN(CCCN1C(=O)c2ccccc2S1(=O)=O)C1CCc2cccc(OC)c2C1 (stereo not drawn) — lower, 131 °C
- O=C(Cc1ccc(F)cc1)Nc1cccc2nc(N[C@@H]3CCc4ccccc43)ccc12 — higher, 207 °C
- Cc1nc(-c2ccc([C@H]3CN(c4nc(-c5ccncn5)cc(=O)n4C)CCO3)cc2)no1 — higher, 191 °C
- C=CCC1(CC=C)c2cccc(OC)c2C(=O)c2cccc(Cl)c21 — higher, 165 to 166 °C
- COC(=O)CCC/C=C(/c1cc(C)c2on(C)c(=O)c2c1)c1cc(C)c2oc(=O)n(C)c2c1 — higher, 152 to 154 °C
- CCOc1cc(Cc2cnc(N)nc2N)cc(OCC)c1C(O)CS(C)(=O)=O (stereo not drawn) — higher, 205 to 206 °C
- Cc1ccc(-c2cc(F)c(F)cc2-c2ccc(S(C)(=O)=O)cc2)cc1C — lower, 125 to 126 °C
- O=Cc1ccc(OCc2ccc3ccccc3c2)cc1 — lower, 103 to 109 °C
- Nn1cnc2c(Br)csc2c1=O — higher, 181 to 183 °C
- CCC(CC)Nc1cc(C)nc(Oc2c(C)cc(C)cc2C)c1NC(C)=O — higher, 154 to 156 °C
- NOCc1cn(C(c2ccccc2)(c2ccccc2)c2ccccc2)cn1 — not separable, 138 to 139 °C
- CC(C)NC(=O)N1CCc2cc(S(=O)(=O)n3cc(-c4ccccc4)[nH]c3=O)ccc21 — higher, 214 to 216 °C
- COc1ccc(C(O)Cc2ccccn2)cc1OC1CCCC1 (stereo not drawn) — lower, 94 to 96 °C
- CCc1nccc2[nH]c(=O)ccc12 — higher, 186 to 188 °C
- O=C1OCCC1=Cc1ccccc1OCC(O)CN1CCC(c2ccc(Cl)c(F)c2)CC1 (stereo not drawn) — lower, 114 to 115 °C
- COc1ccc2c(c1)CCc1c(C(F)F)nn(-c3ccc(S(N)(=O)=O)cc3)c1-2 — higher, 256 to 257 °C
- Cc1nc2ccccc2n1C1CCNCC1 — lower, 130 to 132 °C
- CN(C)CCN(C)C(=O)[C@H]1CC[C@H](N(C)S(=O)(=O)c2ccc(C(F)(F)F)cc2)CC1 — lower, 83 °C
- CC(C)Cn1c(=O)n(C)c(=O)c2c(Sc3nc(Br)n[nH]3)c(Cc3ccccc3C(F)(F)F)sc21 — higher, 174 to 175 °C
- CCCCCc1ccc(C(=O)Cc2cccc(C#N)c2)cc1 — lower, 73 °C
- NC(=O)C1CCC(OCCCN2CCN(c3cccc4sccc34)CC2)CC1 (stereo not drawn) — lower, 108 °C
- CCCCN=C(N(CCCC)CCCC)N(CCCC)CCCC — lower, 100 to 102 °C
- CC(=O)Cn1nc(C)oc1=O — lower, 55 to 58 °C
- ICCC(c1ccccc1)c1ccccc1 — lower, 51 to 55 °C
- CC(=O)C(=Cc1ccc(S(C)(=O)=O)c(Br)c1)C(C)=O — not separable, 135 to 139 °C
- CCOP(=O)(/C=C/c1cn(-c2ccccc2)nc1OCc1ccc(OCc2nc(/C=C/C(=O)O)oc2C)c(OC)c1)OCC — lower, 89 to 90 °C
- O=[N+]([O-])C(Sc1ccc(Cl)cc1)=C1NCCN1Cc1ccc(Cl)nc1 — higher, 159 to 161 °C
- O=C(CS(=O)(=O)c1ccccc1)c1ccccn1 — lower, 101 to 103 °C
- CCCCCCCCCCCCCCCCCCNC(=O)c1ccccc1 — lower, 85 to 87 °C
- N#Cc1c(C(F)(F)F)oc2cc(O)ccc2c1=O — higher, 255 to 257 °C
- CCn1nc(C(N)=O)cc1CC(C)(C)NC(=O)OC(C)(C)C — higher, 178 to 180 °C
- Cn1cccc1-c1nc2c(N[C@H]3[C@@H](C(N)=O)[C@@H]4C=C[C@H]3C4)c(Br)cnc2[nH]1 — higher, 293 to 295 °C
- O=C(CC(=Cc1cccc2ccccc12)C(=O)O)NCCc1ccccc1 — higher, 183 to 187 °C
- C[C@@H](n1cnc2ccc(Cl)cc2c1=O)[C@](O)(Cn1cncn1)c1ccc(F)cc1F — higher, 188 to 189 °C
- COC(=O)C1(C)CN(C(=O)Nc2c(C)noc2C)N=C1c1ccc(Cl)cc1 (stereo not drawn) — higher, 214 to 216 °C
- NC(=O)Nc1ccc(N2CCN(c3ccncc3)CC2)cc1 — higher, > 250 °C
- COc1ccc(-c2ncnc(-c3ccc(C(F)(F)F)cc3F)c2N)c(O)c1 — lower, 100 to 103 °C
- COC(=O)CCC(=O)c1ccc(O)cc1 — lower, 115 to 116 °C
- CCCc1ccccc1Sc1c(O)cc(-c2ccccc2)oc1=O — higher, 158 to 160 °C
- S=C(Nc1ccc(Cl)cc1)NC1CC2C3CC4C2C4C13 (stereo not drawn) — higher, 168 to 170 °C
- CN(c1cccc2cc(C(=O)NCC3(SCc4ccccc4)CCN(C(=O)OC(C)(C)C)CC3)[nH]c12)S(=O)(=O)c1cccs1 — higher, 195 to 197 °C
- CC(=O)Nc1ccc2c3c1c(=O)c(C(=O)O)cn3C(C)CC2 (stereo not drawn) — higher, 277 to 279 °C
- O=C(Nc1ccccc1N1CCc2ccccc21)C1CCCCC1 — lower, 87 to 89 °C
- COc1ccc(C)cc1NC(=O)Nc1ccc(N2CCN(C(=O)Nc3cc(OCCO)ccc3Cl)CC2)cc1 — lower, 121 to 124 °C
- CCN(CC)C(=O)Nc1ccc(S(=O)(=O)N2C(=O)C(NCCO)(c3ccccc3Cl)c3cc(Cl)ccc32)cc1 (stereo not drawn) — higher, 192 to 193 °C
- CC(C)n1nc(-c2sc(C(=O)NCCc3ccccn3)nc2-c2ccccc2)ccc1=O — higher, 144 to 147 °C
- Cc1ccccc1C1NS(=O)(=O)c2ccccc21 (single isomer, unassigned; (+)) — lower, 109 to 111 °C
- COCCO[C@@H]1c2ccc3c(nc(C)n3C3CC3)c2O[C@H](c2ccccc2)[C@H]1O — higher, 183 °C
- CC1=C2C=c3c(cnn3CC(C)N=[N+]=[N-])=C2CC=C1 (racemic) — lower, 70 to 72 °C
- CC(c1oc2ccccc2c(=O)c1-c1cccc(F)c1)n1nc(-c2ccc(N3CCOCC3)nc2)c2c(N)ncnc21 (stereo not drawn) — higher, 269 to 271 °C
- Nc1nc2ccccc2c2c1nc(N)n2Cc1ccccc1 — higher, 254 to 256 °C
- COc1cccc(NC(=O)c2ccc(F)c([N+](=O)[O-])c2)c1 — higher, 145 to 146 °C
- CC(=O)N(c1ccc(F)c(Cl)c1)c1ncnc2cc(OCCCN3CCOCC3)c([N+](=O)[O-])cc12 — higher, 154 °C
- CC(=O)Nc1ccc(OCCCN2C(=O)c3ccccc3C2=O)cc1 — higher, 154 to 156 °C
- CC(C)=CCOc1ccc(C(=O)C=Cc2c(Cl)cccc2Cl)c(O)c1 — lower, 101 to 102 °C
- O=C(NC[C@H]1CN(c2ccc3c(c2)CCCc2cnoc2-3)C(=O)O1)c1ccccc1 — higher, 240 to 245 °C
- CCOC(=O)N1CCc2onc(Cl)c2C1 — lower, 40 to 42 °C
- CCOC(=O)c1cc(-c2ccc(-c3ccco3)cc2)n(-c2ccc(S(C)(=O)=O)cc2)n1 — higher, 181 °C
- CCOC(=O)c1cccc(-c2cccc3cc(CBr)sc23)c1 — lower, 96 to 97 °C
- COC(=O)C1C=CCN2C(=O)C(C)(CCO)C(=O)N12 (stereo not drawn) — lower, 97 to 99 °C
- CC1(C)CC(OC(=O)CCCCCNC(=O)OC2CC(C)(C)NC(C)(C)C2)CC(C)(C)N1 — lower, 59 to 62 °C
- CCN(C(C)=O)c1cccc(-c2ccc3nnc(N)n3n2)c1 — higher, 192 to 193 °C
- Cc1ccc(S(=O)(=O)OCCCC2(C)NC(=O)NC2=O)cc1 (stereo not drawn) — lower, 126 to 127 °C
- O=C(Nc1ccc(Cl)c(C(F)(F)F)c1)N[C@H]1CC[C@H](O)CC1 — higher, 203 to 207 °C
- C=C1CC2C(CCC3(C)C2CCC3(O)C(=O)COC(C)=O)C2(C)CCC(=O)C=C12 (stereo not drawn) — higher, 194 to 196 °C
- Cc1ccc2[nH]c(C)c(-c3ccc(F)cc3)c2c1 — lower, 124 to 128 °C
- Cc1ccc(Sc2cncc3sc(C(N)=O)cc23)cc1C — higher, 192 to 194 °C
- O=C1CS(=O)c2ccccc2N1 (stereo not drawn) — higher, 184 to 186 °C
- COc1cc(Br)c(N)c(C(=O)/C=C/c2ccc(OC)c(F)c2)c1 — lower, 123 to 125 °C
- O=C(Nc1c[nH]nc1C(=O)NCC(F)(F)F)c1ccccn1 — higher, 235 to 236 °C
- CCN(CC)C(=O)Oc1nc(C)c2cc(OC)c(OC)cc2c1NC(N)=O — higher, 215 to 216 °C
- O=c1ccn2c3ccccc3c3cc(Cl)cc1c32 — higher, 158 to 159 °C
- COc1ccc(CCC(=O)C2C(=O)NC(=O)NC2=O)cc1 — higher, 248 to 250 °C
- COc1ccc2c(c1)c(CN(O)C(=O)N(C)C)c(C)n2C(=O)c1ccc(Cl)cc1 — higher, 173 to 174 °C
- Nc1ccc2c(c1Br)C(=O)CCC2 — lower, 93 to 96 °C
- Cc1oc(-c2ccc(S(C)(=O)=O)cc2)c(Oc2ccc(F)cc2)c(=O)c1Cl — higher, 279 °C
